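Step 1: Grow cells in 96-well plates. Step 2: Expose to compound for 48 hours at 5 concentrations. Step 3: Interpolate endpoints linearly; if unreached, use highest concentration. GI50: concentration for 50% inhibition of growth. TGI: total growth inhibition.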
What was measured:
Assay in all cases: inhibition of tumour cell growth, NCI panel, 48 h
[1] = tested on: 786-0 renal
[2] = tested on: A498 renal
[3] = tested on: A549 NSCLC
[4] = tested on: ACHN renal
[5] = tested on: BT-549 breast
[6] = tested on: CAKI-1 renal
[7] = tested on: CCRF-CEM leukemia
[8] = tested on: COLO 205 colon
[9] = tested on: DU-145 prostate
[10] = tested on: HCC-2998 colon
[11] = tested on: HCT-116 colon
[12] = tested on: HCT-15 colon
[13] = tested on: HL-60(TB) leukemia
[14] = tested on: HOP-62 NSCLC
[15] = tested on: HOP-92 NSCLC
[16] = tested on: HS 578T breast
[17] = tested on: HT29 colon
[18] = tested on: IGROV1 ovarian
[19] = tested on: K-562 leukemia
[20] = tested on: KM12 colon
[21] = tested on: LOX IMVI melanoma
[22] = tested on: M14 melanoma
[23] = tested on: MALME-3M melanoma
[24] = tested on: MCF7 breast
[25] = tested on: MDA-MB-231 breast
[26] = tested on: MDA-MB-435
[27] = tested on: MOLT-4 leukemia
[28] = tested on: NCI-H226 lung
[29] = tested on: NCI-H23 lung
[30] = tested on: NCI-H460 lung
[31] = tested on: NCI-H522 lung
[32] = tested on: NCI/ADR-RES ovarian
[33] = tested on: OVCAR-3 ovarian
[34] = tested on: OVCAR-4 ovarian
[35] = tested on: OVCAR-5 ovarian
[36] = tested on: OVCAR-8 ovarian
[37] = tested on: PC-3 prostate
[38] = tested on: RPMI-8226 leukemia
[39] = tested on: RXF 393 renal
[40] = tested on: SF-268 CNS
[41] = tested on: SF-295 CNS
[42] = tested on: SF-539 CNS
[43] = tested on: SK-MEL-2 melanoma
[44] = tested on: SK-MEL-28 melanoma
[45] = tested on: SK-MEL-5 melanoma
[46] = tested on: SK-OV-3 ovarian
[47] = tested on: SN12C renal
[48] = tested on: SNB-19 CNS
[49] = tested on: SNB-75 CNS
[50] = tested on: SR leukemia
[51] = tested on: SW-620 colon
[52] = tested on: T-47D breast
[53] = tested on: TK-10 renal
[54] = tested on: U251 CNS
[55] = tested on: UACC-257 melanoma
[56] = tested on: UACC-62 melanoma
[57] = tested on: UO-31 renal

Work on `CN(CCO)C1CCN(c2ccc(Nc3ncc4c5ccnc(F)c5n(C5CCCC5)c4n3)nc2)CC1` yielded a GI50 [1] of 5.12 µM, a TGI [1] of 26.9 µM and a GI50 [2] of 0.366 µM. It also gave a TGI [2] of 14.6 µM, a GI50 [3] of 2.27 µM and a TGI [3] of 7.9 µM. The GI50 [4] was 1.98 µM, the TGI [4] was 20.6 µM and the GI50 [5] was 13.1 µM. It also gave a TGI [5] of 31.4 µM, a GI50 [6] of 4.44 µM and a TGI [6] of 21.3 µM. It also gave a GI50 [7] of 0.208 µM, a TGI [7] of 3.59 µM and a GI50 [8] of 0.0817 µM. For the same compound, the TGI [8] was 18.5 µM, the GI50 [9] was 1.76 µM and the TGI [9] was 3.18 µM. The GI50 [10] was 11.1 µM, the TGI [10] was 25.4 µM and the GI50 [11] was 1.85 µM. It also gave a TGI [11] of 7.36 µM, a GI50 [12] of 3.01 µM and a TGI [12] of 7.79 µM. It also gave a GI50 [13] of 0.103 µM, a TGI [13] of 8.05 µM and a GI50 [14] of 4.7 µM. The TGI [14] was 25.4 µM, the GI50 [15] was 11.6 µM and the TGI [15] was 28.8 µM. For the same compound, the GI50 [16] was 6.01 µM, the TGI [16] was 34.3 µM and the GI50 [17] was 1.23 µM. It also gave a TGI [17] of 4.45 µM, a GI50 [18] of 11.7 µM and a TGI [18] of 30.8 µM. For the same compound, the GI50 [19] was 1.32 µM, the TGI [19] was 4.08 µM and the GI50 [20] was 0.0514 µM. For the same compound, the TGI [20] was 1.73 µM, the GI50 [21] was 1.02 µM and the TGI [21] was 2.24 µM. The GI50 [22] was 11.7 µM, the TGI [22] was 32.8 µM and the GI50 [23] was 12.7 µM. For the same compound, the TGI [23] was 34.5 µM, the GI50 [24] was 0.106 µM and the TGI [24] was 3.05 µM. The GI50 [25] was 6.01 µM, the TGI [25] was 24.2 µM and the GI50 [26] was 5.84 µM. For the same compound, the TGI [26] was 20.7 µM, the GI50 [27] was 0.0513 µM and the TGI [27] was 9.74 µM. For the same compound, the GI50 [28] was 16.3 µM, the TGI [28] was 55 µM and the GI50 [29] was 7.76 µM. The TGI [29] was 32.3 µM, the GI50 [30] was 0.99 µM and the TGI [30] was 2.44 µM. For the same compound, the GI50 [31] was 17.2 µM, the TGI [31] was 36.2 µM and the GI50 [32] was 15.3 µM. The TGI [32] was 36 µM, the GI50 [33] was 14.9 µM and the TGI [33] was 30.4 µM. The GI50 [34] was 11.2 µM, the TGI [34] was 27.7 µM and the GI50 [35] was 0.812 µM. For the same compound, the TGI [35] was 20.7 µM, the GI50 [36] was 14.7 µM and the TGI [36] was 43.4 µM. It also gave a GI50 [37] of 8.47 µM, a TGI [37] of 25.8 µM and a GI50 [38] of 0.184 µM. The TGI [38] was 19.8 µM, the GI50 [39] was 1.73 µM and the TGI [39] was 16.8 µM. For the same compound, the GI50 [40] was 12.5 µM, the TGI [40] was 30.9 µM and the GI50 [41] was 2.22 µM. For the same compound, the TGI [41] was 20.2 µM, the GI50 [42] was 4.6 µM and the TGI [42] was 10.5 µM. It also gave a GI50 [43] of 20.4 µM, a TGI [43] of 45.6 µM and a GI50 [44] of 12.3 µM. The TGI [44] was 28.9 µM, the GI50 [45] was 10.9 µM and the TGI [45] was 25.9 µM. The GI50 [46] was 11.1 µM, the TGI [46] was 26 µM and the GI50 [47] was 12.2 µM. The TGI [47] was 31.5 µM, the GI50 [48] was 2.47 µM and the TGI [48] was 33.8 µM. It also gave a GI50 [49] of 5.67 µM, a TGI [49] of 20.7 µM and a GI50 [50] of 1.23 µM. The TGI [50] was 4.61 µM, the GI50 [51] was 0.184 µM and the TGI [51] was 2.21 µM. For the same compound, the GI50 [52] was 17.5 µM, the TGI [52] was 69.1 µM and the GI50 [53] was 1.59 µM. It also gave a TGI [53] of 21.2 µM, a GI50 [54] of 2.74 µM and a TGI [54] of 7.5 µM. It also gave a GI50 [55] of 17.6 µM, a TGI [55] of 40 µM and a GI50 [56] of 16.7 µM. It also gave a TGI [56] of 46 µM, a GI50 [57] of 1.86 µM and a TGI [57] of 20.9 µM.

Source: PubChem BioAssay (NCI)
